# Test results taken from ChEMBL document CHEMBL1142290, “Synthesis of novel oxazolidinone antimicrobial agents” (2008).
# The source made the active and inactive calls. The rule behind the calls is not given here.
# Key:
# Staphylococcus aureus = assay: Antimicrobial activity against Staphylococcus aureus ATCC 29213 after 24 hrs; type: functional; conditions: ATCC 29213, 24 h
# Escherichia coli = assay: Antimicrobial activity against Escherichia coli ATCC 25922 upto 100 ug/ml after 24 hrs; type: functional, organism-based
structure (smiles),measurement,setting,value
O=C(O)c1cn(C[C@H]2CN(c3ccc4c(c3)Oc3ccccc3O4)C(=O)O2)nn1,MIC,Staphylococcus aureus,> 50 µg/mL
same,Activity,Escherichia coli,inactive
CC(=O)NC[C@H]1CN(c2ccc3c(c2)Oc2ccccc2O3)C(=O)O1,MIC,Staphylococcus aureus,2 µg/mL
O=C1O[C@@H](Cn2ccnn2)CN1c1ccc2c(c1)Oc1ccccc1O2,MIC,Staphylococcus aureus,> 50 µg/mL
same,Activity,Escherichia coli,inactive
CCCCc1cn(C[C@H]2CN(c3ccc4c(c3)Oc3ccccc3O4)C(=O)O2)nn1,MIC,Staphylococcus aureus,> 50 µg/mL
same,Activity,Escherichia coli,inactive
